Patent US20070110758A1, “Method for inhibiting bacterial colonisation” (ADELAIDE RESERCH & INNOVATION PTY LTD, priority 2003, published 2007)

System: H. pylori
Assay: Level of H. pylori colonisation in gastric body, transitional zone and antrum of inoculated mice, counted on Giemsa stained sections
Type: in vivo, Helicobacter pylori
Details: Example 6; N-acetyl cysteine alone; FIGS. 3, 4
Experimental: Female C57BL/6 mice, approximately six week old, were orally inoculated with Sydney strain 1 (SS1) of H. pylori (1.0×10^8 bacteria delivered in 0.1 ml of 0.9% (w/v) sodium chloride) according to Lee et al., (1997) Gastroenterology 112:1386-1397 (the entire disclosure of which is incorporated herein by reference) and treated twice daily by oro-gastric gavage for 21 days, starting 4 weeks after inoculation (Scheme 1 below). Animals were housed in the Animal House at the Women's and Children's Hospital. All animals were fed mouse chow and water ad libitum. [drawing 1] […]
The level of colonisation in the gastric body, transitional zone and antrum of mice inoculated with H. pylori was counted in 9-12 consecutive fields on Giemsa stained sections.
To assess the effect of the mucolytic agent N-acetyl cysteine […] on colonisation, the level of colonisation in the gastric body, transitional zone and antrum in mice inoculated with H. pylori was counted in 9-12 consecutive fields on Giemsa stained sections.
The level of colonisation in the gastric body, transitional zone and antrum in mice inoculated with H. pylori was counted in 9-12 consecutive fields on Giemsa stained sections.
Colonisation (Giemsa staining): The level of colonisation in the gastric body, transitional zone and antrum was counted in 9-12 consecutive fields on stained sections. […]

For `CC(=O)N[C@@H](CS)C(=O)O` [NAC, N-acetyl cysteine], the level of colonisation was “no effect”.
